Experimental data published in patent US7622488B2, “Use of a pyrazole derivative for preparing medicines useful for treating renal diseases” (sanofi-aventis, priority 2005, dated 2009).

Legend:
obese patients = settings: clinical studies, cited from earlier work
Zucker fa/fa obese rats = experiment: Long-term treatment (12 months) of Zucker fa/fa obese rats with established obesity; protection of renal function; type: in vivo; settings: for mortality: after 12 months, untreated obese rats 64%
Procedure: The Zucker obese rat strain fa/fa is characterized by hyperphagia, obesity, dyslipidemia aid type 2 diabetes resulting in the gradual development of a nephropathy.
A group of Zucker fa/fa obese rats that were not treated, but received the same amount of food as the group treated with 10 mg/kg/day per os, was also formed (pair-fed group).

[1] = Zucker fa/fa obese rats, 3 and 10 mg/kg/day per os for 12 months, vs vehicle
[2] = after 12 months of treatment, 3 and 10 mg/kg/day

## Cc1c(C(=O)NN2CCCCC2)nn(-c2ccc(Cl)cc2Cl)c1-c1ccc(Cl)cc1 [rimonabant, N-piperidino-5-(4-chlorophenyl)-1-(2,4-dichlorophenyl)-4-methylpyrazole-3-carboxamide]
Obese patients; obese patients
  body weight of obese patients: reduces
Obese patients
  food intake: acts on food intake in quantitative and qualitative terms
Zucker fa/fa obese rats; 3 mg/kg/day per os, p<0.05
  mortality: 28%
Zucker fa/fa obese rats; 10 mg/kg/day per os, p<0.01
  mortality: 20%
Zucker fa/fa obese rats; 3 and 10 mg/kg/day per os
  survival of the Zucker fa/fa obese rats: very significantly prolongs
Zucker fa/fa obese rats; [1]
  creatinine clearance: partially restored
  increase in plasma creatinine level: decreased in a dose-dependent manner
  increase in plasma urea level: decreased in a dose-dependent manner
Zucker fa/fa obese rats; Zucker fa/fa obese rats, 12 months treatment, vs vehicle
  renal hypertrophy: significantly reduced
Zucker fa/fa obese rats; [2]
  contractility: remain unchanged
  heart rate: remain unchanged
  left ventricular pressure: remain unchanged
  mean arterial pressure: remain unchanged
Zucker fa/fa obese rats; chronic treatment, 3 and 10 mg/kg/day per os
  protienuria: significantly delays
